The values that follow come from patent US8895504B2, “Amylin derivatives” (priority 2008, dated 2014).

A short description of series [1]: Assay (V) PK - determination of T½ in mini-pig. Format: in vivo. As to conditions: minipig, sc; terminal plasma half-life, subcutaneous, approx 2 nmol/kg, male Göttingen mini-pigs. In short, it runs like this:
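Male Göttingen mini-pigs (5–12 months, 7–35 kg) got a single s.c. neck injection of approx 2 nmol/kg; plasma sampled via central venous catheter predose to 240 h (some to 288 h). Amylin measured by sandwich ELISA; T½ = ln 2/λz from non-compartmental analysis of individual profiles.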

Series [2] has as its target T1, Amylin 3(a) receptor (human calcitonin receptor (CTa) and RAMP-3) (Homo sapiens, UniProt O60896+P30988).
T1 construct: expressed in transfected cells; host or cells: BHK570 cells, stably transfected with a CRE-luciferase reporter
In words: Luciferase assay (III), BHK Amylin 3(a)//CRE-luc cells. Format: cell-based. The following applies: BHK cells with Amylin 3(a) receptor and CRE luciferase reporter, 4 hours incubation; read-out: Potency Luciferase. In outline: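 BHK570 cells stably expressing CTa, RAMP-3 and a CRE-luciferase reporter, seeded at about 20,000 cells/well and grown overnight. Cells were exposed to standard or sample for 4 h at 37° C in phenol red-free DMEM with 10% FBS and 10 mM Hepes, pH 7,4. Luminescence was read after 30 min LucLite at room temperature.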
Background: In a reporter assay the amount or activity of a reporter protein is the signal.

The subject of the next series is food intake. In words: Pharmacological Assay (I) - efficacy testing on appetite, ad libitum fed rat model. Format: in vivo, Sprague Dawley (SD) rats. The following applies: 30 nmol/kg vs vehicle, ad libitum fed rats, n=5-7, 0-48 hours. The text has this: Assays Pharmacological Assay (I)—Experimental Protocol for Efficacy Testing on Appetite with an Amylin Derivative, Using an Ad Libitum Fed Rat Model. Sprague Dawley (SD) rats from Taconic Europe, Denmark are used for the experiments. The rats have a body weight 200-250 g at the start of experiment. The rats arrive at least 10-14 days before start of experiment to allow acclimatization to experimental settings. During this period the animals are handled at least 2 times. After arrival rats are housed individually for one week in a reversed light/dark phase (meaning that lights are off during daytime and on during nighttime) for two weeks. Since rats are normally active and eat their major part of their daily food intake during the dark period, rats are dosed in the morning right before lights are turned off. This set-up results in the lowest data variation and highest test sensitivity. The experiment is conducted in the rats' home cages and rats have free access to food and water throughout the acclimatization period and the experiment period. Each dose of derivative is tested in a group of 5-8 rats. A vehicle group of 6-8 rats is included in each set of testing. Rats are dosed once according to body weight with a 0.01-3 mg/kg solution administered intraperitoneally (ip), orally (po) or subcutaneously (sc). The time of dosing is recorded for each group. After dosing, the rats are returned to their home cages, where they then have access to food and water. The food consumption is recorded individually continuously by on-line registration or manually every hour for 7 hours, and then after 24 h and sometimes 48 h. At the end of the experimental session, the animals are euthanized. The individual data are recorded in Microsoft excel sheets. Outliers are excluded after applying the Grubbs statistical evaluation test for outliers, and the result is presented graphically using the GraphPad Prism program.

Structures are written as SMILES. *1 amine or outer side, *2 acyl side, *3 side chain or, on linkers, in order; H or OH if unused. Where a SMILES comes first, the peptide text is derived from it. Bridges are numbered along the chain shown (N, C = ends). The star is where a group is joined. C20 diacid = O=C(O)CCCCCCCCCCCCCCCCCCC(=O)*; C18 diacid = O=C(O)CCCCCCCCCCCCCCCCC(=O)*; γGlu = O=C(O)[C@H](CCC(=O)[*:2])N[*:1]; AEEA = NCCOCCOCC(=O)O

T1 sequence (O60896 24-148): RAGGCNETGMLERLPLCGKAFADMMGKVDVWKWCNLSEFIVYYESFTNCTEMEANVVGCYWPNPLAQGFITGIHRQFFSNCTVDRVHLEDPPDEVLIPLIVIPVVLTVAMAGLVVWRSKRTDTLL
T1 sequence (P30988 25-474): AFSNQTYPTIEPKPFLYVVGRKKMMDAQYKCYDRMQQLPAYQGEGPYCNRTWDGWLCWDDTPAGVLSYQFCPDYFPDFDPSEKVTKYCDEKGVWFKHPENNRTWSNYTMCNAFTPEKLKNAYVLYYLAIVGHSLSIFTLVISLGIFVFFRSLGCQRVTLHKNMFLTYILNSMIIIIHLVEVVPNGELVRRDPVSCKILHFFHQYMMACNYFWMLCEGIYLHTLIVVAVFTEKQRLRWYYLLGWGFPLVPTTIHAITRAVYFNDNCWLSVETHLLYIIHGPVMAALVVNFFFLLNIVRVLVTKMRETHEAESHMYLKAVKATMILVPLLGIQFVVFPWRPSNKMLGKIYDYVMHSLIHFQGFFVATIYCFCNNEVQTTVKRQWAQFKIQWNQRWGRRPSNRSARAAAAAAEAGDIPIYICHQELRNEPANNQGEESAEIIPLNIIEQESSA

Turning to `CC[C@H](C)[C@H](NC(=O)[C@@H]1CCCN1C(=O)CNC(=O)[C@H](Cc1ccccc1)NC(=O)[C@H](CC(N)=O)NC(=O)[C@H](CC(N)=O)NC(=O)[C@H](CO)NC(=O)[C@H](CO)NC(=O)[C@H](Cc1c[nH]cn1)NC(=O)[C@H](Cc1c[nH]cn1)NC(=O)[C@H](CC(C)C)NC(=O)[C@H](Cc1ccccc1)NC(=O)[C@H](CC(N)=O)NC(=O)[C@H](C)NC(=O)[C@H](CC(C)C)NC(=O)[C@H](CCCNC(=N)N)NC(=O)[C@H](CCC(N)=O)NC(=O)[C@@H](NC(=O)[C@H](C)NC(=O)[C@@H]1CSSC[C@H](NC(=O)[C@H](Cc2c[nH]cn2)NC(=O)[C@H](Cc2c[nH]cn2)NC(=O)CC[C@H](NC(=O)CCCCCCCCCCCCCCCCCCC(=O)O)C(=O)O)C(=O)N[C@@H](CC(N)=O)C(=O)N[C@@H]([C@@H](C)O)C(=O)N[C@@H](C)C(=O)N[C@@H]([C@@H](C)O)C(=O)N1)[C@@H](C)O)C(=O)N[C@@H](CC(C)C)C(=O)N1CCC[C@H]1C(=O)N1CCC[C@H]1C(=O)N[C@H](C(=O)N[C@@H](CC(N)=O)C(=O)N[C@H](C(=O)NCC(=O)N[C@@H](CO)C(=O)N[C@@H](CC(N)=O)C(=O)N[C@H](C(=O)N[C@@H](Cc1ccc(O)cc1)C(N)=O)[C@@H](C)O)C(C)C)[C@@H](C)O` [Example 27, N-alpha-[(S)-4-Carboxy-4-(19-carboxynonadecanoylamino)butyryl]-His-[His1,His17]-pramlintide] ({C20 diacid-γGlu}-HHCNTATCATQRLANFLHHSSNNFGPILPPTNVGSNTY-NH2; disulfide 3-8), in series [1], the half-life (commonly the time needed for the level to fall by half in the phase considered) was 64 h. Also, the EC50 in series [2] worked out at 0.1 nM. For the same compound, in the series on food intake, the “food intake over a period of 48 hours” value was “effectively reducing food intake”.

`CC[C@H](C)[C@H](NC(=O)[C@@H]1CCCN1C(=O)CNC(=O)[C@H](Cc1ccccc1)NC(=O)[C@H](CC(N)=O)NC(=O)[C@H](CC(N)=O)NC(=O)[C@H](CO)NC(=O)[C@H](CO)NC(=O)[C@H](Cc1c[nH]cn1)NC(=O)[C@H](Cc1c[nH]cn1)NC(=O)[C@H](CC(C)C)NC(=O)[C@H](Cc1ccccc1)NC(=O)[C@H](CC(N)=O)NC(=O)[C@H](C)NC(=O)[C@H](CC(C)C)NC(=O)[C@H](CCCNC(=N)N)NC(=O)[C@H](CCC(N)=O)NC(=O)[C@@H](NC(=O)[C@H](C)NC(=O)[C@@H]1CSSC[C@H](NC(=O)[C@H](Cc2c[nH]cn2)NC(=O)[C@H](Cc2c[nH]cn2)NC(=O)CC[C@H](NC(=O)CCCCCCCCCCCCCCCCC(=O)O)C(=O)O)C(=O)N[C@@H](CC(N)=O)C(=O)N[C@@H]([C@@H](C)O)C(=O)N[C@@H](C)C(=O)N[C@@H]([C@@H](C)O)C(=O)N1)[C@@H](C)O)C(=O)N[C@@H](CC(C)C)C(=O)N1CCC[C@H]1C(=O)N1CCC[C@H]1C(=O)N[C@H](C(=O)N[C@@H](CC(N)=O)C(=O)N[C@H](C(=O)NCC(=O)N[C@@H](CO)C(=O)N[C@@H](CC(N)=O)C(=O)N[C@H](C(=O)N[C@@H](Cc1ccc(O)cc1)C(N)=O)[C@@H](C)O)C(C)C)[C@@H](C)O` [Example 31, N-alpha-[(S)-4-Carboxy-4-(17-carboxyheptadecanoylamino)butyryl]-His-[His1,His17]-pramlintide] ({C18 diacid-γGlu}-HHCNTATCATQRLANFLHHSSNNFGPILPPTNVGSNTY-NH2; disulfide 3-8) showed a half-life in series [1] of 41 h. Further, the EC50 in series [2] stood at 0.02 nM. Besides, the “food intake over a period of 48 hours” value with food intake was “effectively reducing food intake”.

As to `CC[C@H](C)[C@H](NC(=O)[C@@H]1CCCN1C(=O)CNC(=O)[C@H](Cc1ccccc1)NC(=O)[C@H](CC(N)=O)NC(=O)[C@H](CC(N)=O)NC(=O)[C@H](CO)NC(=O)[C@H](CO)NC(=O)[C@H](Cc1c[nH]cn1)NC(=O)[C@H](Cc1c[nH]cn1)NC(=O)[C@H](CC(C)C)NC(=O)[C@H](Cc1ccccc1)NC(=O)[C@H](CC(N)=O)NC(=O)[C@H](C)NC(=O)[C@H](CC(C)C)NC(=O)[C@H](CCCNC(=N)N)NC(=O)[C@H](CCC(N)=O)NC(=O)[C@@H](NC(=O)[C@H](C)NC(=O)[C@@H]1CSSC[C@H](NC(=O)[C@H](CCCNC(=N)N)NC(=O)COCCOCCNC(=O)COCCOCCNC(=O)CC[C@H](NC(=O)CCCCCCCCCCCCCCCCC(=O)O)C(=O)O)C(=O)N[C@@H](CC(N)=O)C(=O)N[C@@H]([C@@H](C)O)C(=O)N[C@@H](C)C(=O)N[C@@H]([C@@H](C)O)C(=O)N1)[C@@H](C)O)C(=O)N[C@@H](CC(C)C)C(=O)N1CCC[C@H]1C(=O)N1CCC[C@H]1C(=O)N[C@H](C(=O)N[C@@H](CC(N)=O)C(=O)N[C@H](C(=O)NCC(=O)N[C@@H](CO)C(=O)N[C@@H](CC(N)=O)C(=O)N[C@H](C(=O)N[C@@H](Cc1ccc(O)cc1)C(N)=O)[C@@H](C)O)C(C)C)[C@@H](C)O` [Example 45, N-alpha-[2-(2-{2-[2-(2-{2-[(S)-4-Carboxy-4-(17-carboxyheptadecanoylamino)butyrylamino]ethoxy}ethoxy)acetylamino]ethoxy}ethoxy)acetyl][Arg1,His17]-pramlintide] ({C18 diacid-γGlu-AEEA-AEEA}-RCNTATCATQRLANFLHHSSNNFGPILPPTNVGSNTY-NH2; disulfide 2-7), the EC50 in series [2] amounted to 0.03 nM. For the same compound, in the series on food intake, the “food intake over a period of 48 hours” value is reported as “effectively reducing food intake”.

In series [1], `CC[C@H](C)[C@H](NC(=O)[C@@H]1CCCN1C(=O)CNC(=O)[C@H](Cc1ccccc1)NC(=O)[C@H](CC(N)=O)NC(=O)[C@H](CC(N)=O)NC(=O)[C@H](CO)NC(=O)[C@H](CO)NC(=O)[C@H](CCCNC(=N)N)NC(=O)[C@H](Cc1c[nH]cn1)NC(=O)[C@H](CC(C)C)NC(=O)[C@H](Cc1ccccc1)NC(=O)[C@H](CC(N)=O)NC(=O)[C@H](C)NC(=O)[C@H](CC(C)C)NC(=O)[C@H](CCCNC(=N)N)NC(=O)[C@H](CCC(N)=O)NC(=O)[C@@H](NC(=O)[C@H](C)NC(=O)[C@@H]1CSSC[C@H](NC(=O)[C@H](Cc2c[nH]cn2)NC(=O)[C@H](Cc2c[nH]cn2)NC(=O)CC[C@H](NC(=O)CCCCCCCCCCCCCCCCCCC(=O)O)C(=O)O)C(=O)N[C@@H](CC(N)=O)C(=O)N[C@@H]([C@@H](C)O)C(=O)N[C@@H](C)C(=O)N[C@@H]([C@@H](C)O)C(=O)N1)[C@@H](C)O)C(=O)N[C@@H](CC(C)C)C(=O)N1CCC[C@H]1C(=O)N1CCC[C@H]1C(=O)N[C@H](C(=O)N[C@@H](CC(N)=O)C(=O)N[C@H](C(=O)NCC(=O)N[C@@H](CO)C(=O)N[C@@H](CC(N)=O)C(=O)N[C@H](C(=O)N[C@@H](Cc1ccc(O)cc1)C(N)=O)[C@@H](C)O)C(C)C)[C@@H](C)O` [Example 47, N-alpha-[(S)-4-Carboxy-4-(19-carboxynonadecanoylamino)butyryl]-His-[His1,His17,Arg18]-pramlintide] ({C20 diacid-γGlu}-HHCNTATCATQRLANFLHRSSNNFGPILPPTNVGSNTY-NH2; disulfide 3-8) had a half-life of 30 h. Further, the EC50 in series [2] came out at 0.2 nM. Moreover, the “food intake over a period of 48 hours” value in the series on food intake was “effectively reducing food intake”.
